Patent publication US11040081B2 (CORPORATION GENACOL CANADA INC., priority 2016, dated 2021)

Legend:
[1] = system: patients diagnosed with osteoarthritis of the knee; experiment: Filipino study: radiographic medial knee joint space width; type: in vivo, human; conditions: weight-bearing anteroposterior radiograph
Description: Group A subjects were given the oral collagen supplement (Genacol®, Blainville, Qc, Canada) 400 mg/capsule, 3 capsules daily at bedtime for 6 months, and a topical analgesic needed for knee pain. Group B, the control group, received the standard treatment using an oral non-steroidal inflammatory drug, in the form of aceclofenac 100 mg/tablet, 1 tablet twice a day for 5 days initially then as needed for pain, and topical analgesic (ketoprofen gel) to be applied twice a day as needed for pain. Both groups underwent physical therapy three times a week for two weeks. Heating modalities, range of motion exercises, and muscle strengthening exercises were administered on each therapy session. Follow up evaluation was done every month. On the sixth month of follow up, repeat radiography evaluation of the involved knee was done to determine if there were any changes in the knee joint. Compliance to the study medication was determined by asking the patient on their missed doses and by counting the remaining unconsumed capsules. […] Using a standard ruler in millimeters, one experienced radiologist who was blinded as to the treatment of each subject measured the narrowest medial compartment of the tibiofemoral joint of each radiographed knee done at the start of the study. […]

[2] = system: patients diagnosed with osteoarthritis of the knee; experiment: Filipino study: WOMAC osteoarthritis index, Likert version; type: in vivo, human; conditions: Likert 0-4
Description: Experimental, randomized, single blind observer, open-labeled, controlled trial. […] Group A subjects were given the oral collagen supplement (Genacol®, Blainville, Qc, Canada) 400 mg/capsule, 3 capsules daily at bedtime for 6 months, and a topical analgesic needed for knee pain. Group B, the control group, received the standard treatment using an oral non-steroidal inflammatory drug, in the form of aceclofenac 100 mg/tablet, 1 tablet twice a day for 5 days initially then as needed for pain, and topical analgesic (ketoprofen gel) to be applied twice a day as needed for pain. Both groups underwent physical therapy three times a week for two weeks. Heating modalities, range of motion exercises, and muscle strengthening exercises were administered on each therapy session. Follow up evaluation was done every month. On the sixth month of follow up, repeat radiography evaluation of the involved knee was done to determine if there were any changes in the knee joint. Compliance to the study medication was determined by asking the patient on their missed doses and by counting the remaining unconsumed capsules. Symptoms of osteoarthritis were assessed using the Western Ontario and McMaster Universities (WOMAC) osteoarthritis index, a validated and disease-specific questionnaire separately addressing severity of joint pain (5 questions), stiffness (2 questions), and limitation of physical function (17 questions) in the 48 hours before assessment. The Likert Version of WOMAC is rated on an ordinal scale of 0 to 4 with lower scores indicating lower levels of symptoms or physical disability. […] There is also an index score or global score, which is most commonly calculated by summating the scores for the 3 subscales. The questionnaire is self administered and takes 5 to 10 minutes to complete. Data was presented as mean±SD or frequency and percent distribution whichever was applicable. Chi square test was performed to indicate any significant difference in the distribution of male and female patients between the two groups while t-test was performed to check for any significant difference in characteristics that were continuous variables. Paired sample t-test was used to compare the significance in change in values (WOMAC and medial knee joint space) of the two groups from baseline to the sixth month follow up.

`O=C(O)COC(=O)Cc1ccccc1Nc1c(Cl)cccc1Cl` [Group B, aceclofenac] was tested. Which “Median Knee Joint Space, mean” value ([1]; 6th ff-up (sixth month)) did it give?
Its value is 3.8 mm.

What about the “Median Knee Joint Space, mean” value ([1]; Baseline) of the same molecule?
Its value is 4.3 mm.

What about the “WOMAC Score, mean” value ([2]; 2nd ff-up (monthly follow-up)) of the same molecule?
Its value is 2.42.

What about the “WOMAC Score, mean” value ([2]; 3rd ff-up (monthly follow-up)) of the same molecule?
Its value is 2.29.

What about the “WOMAC Score, mean” value ([2]; 4th ff-up (monthly follow-up)) of the same molecule?
Its value is 2.26.

And the “WOMAC Score, mean” value ([2]; 5th ff-up (monthly follow-up))?
The value was 2.17.

And the “WOMAC Score, mean” value ([2]; 6th ff-up (sixth month))?
Its value is 1.87.

And the “WOMAC Score, mean” value ([2]; Baseline, Group A n=55, Group B n=58)?
The value was 2.91.
